Laboratory results from PMC12152147, “DDB1 engagement defines the selectivity of S656 analogs for cyclin K degradation over CDK inhibition” (EMBO Reports, 2025).
“And” between values parts separate entries of the source, which are not always exact repeats. Identical values can stand only once. Like-named read-outs stand apart in the source and are kept apart here.

Experiments:
[1] = system: OCI-AML5 cells expressing shRNA targeting CUL4A or CUL4B; test: Dose response in OCI-AML5 expressing shRNAs targeting CUL4A, CUL4B or control; assay type: cell-based, H. sapiens; conditions: OCI-AML5, 4 days
primary AML specimens = test: Dose-response assays in primary AML specimens (6 days, CellTiterGlo); assay type: cell-based, human; conditions: Homo sapiens, 144 h, 6 days, read-out: IC50
In short: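 Primary AML cells in IMDM/15% BIT with SCF, FLT3L, IL3, G-CSF, SR1 and UM729 were exposed to 8-point 1:4 dilutions (10 μM to 0.5 nM) for 6 days. Viability came from CellTiterGlo luminescence, with % inhibition versus DMSO (0.1%) fitted by nonlinear regression.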

cyclin KeGFP = test: Cyclin KeGFP reporter system (eGFP/mCherry MFI by flow cytometry); assay type: cell-based, H. sapiens; conditions: OCI-AML5 G7 clone, 3 h, 10 μM; normalized to DMSO (=100)
In short: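 OCI-AML5 clone G7 carrying lentiviral cyclin KeGFP/mCherry reporter. eGFP and mCherry geometric MFI measured by flow cytometry; eGFP/mCherry ratio normalized to DMSO-treated cells.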

CDK12/Cyclin K = biological target: T1, CDK12/Cyclin K (Homo sapiens, UniProt Q9NYV4); test: CDK12/CyclinK in vitro kinase assay (BPS kit, Kinase Glo MAX); assay type: biochemical; conditions: for in vitro inhibition of CDK12/Cyclin K activity: in % (unit assumed)
T1 construct: purchased BPS Bioscience 78298
Procedure: Kinase activity was assessed using the kinase assay kits from BPS Bioscience for CDK1, CDK9 and CDK12 with Kinase Glo MAX in duplicates. Compounds were tested at a single concentration of 1 μM for CDK1 and CDK9 activity, and in a dilution ranging from 0.64 nM to 50 μM for CDK12 activity. Chemiluminescence was read using the Neo Synergy BioTek plate reader.

T1 sequence (Q9NYV4 whole entry): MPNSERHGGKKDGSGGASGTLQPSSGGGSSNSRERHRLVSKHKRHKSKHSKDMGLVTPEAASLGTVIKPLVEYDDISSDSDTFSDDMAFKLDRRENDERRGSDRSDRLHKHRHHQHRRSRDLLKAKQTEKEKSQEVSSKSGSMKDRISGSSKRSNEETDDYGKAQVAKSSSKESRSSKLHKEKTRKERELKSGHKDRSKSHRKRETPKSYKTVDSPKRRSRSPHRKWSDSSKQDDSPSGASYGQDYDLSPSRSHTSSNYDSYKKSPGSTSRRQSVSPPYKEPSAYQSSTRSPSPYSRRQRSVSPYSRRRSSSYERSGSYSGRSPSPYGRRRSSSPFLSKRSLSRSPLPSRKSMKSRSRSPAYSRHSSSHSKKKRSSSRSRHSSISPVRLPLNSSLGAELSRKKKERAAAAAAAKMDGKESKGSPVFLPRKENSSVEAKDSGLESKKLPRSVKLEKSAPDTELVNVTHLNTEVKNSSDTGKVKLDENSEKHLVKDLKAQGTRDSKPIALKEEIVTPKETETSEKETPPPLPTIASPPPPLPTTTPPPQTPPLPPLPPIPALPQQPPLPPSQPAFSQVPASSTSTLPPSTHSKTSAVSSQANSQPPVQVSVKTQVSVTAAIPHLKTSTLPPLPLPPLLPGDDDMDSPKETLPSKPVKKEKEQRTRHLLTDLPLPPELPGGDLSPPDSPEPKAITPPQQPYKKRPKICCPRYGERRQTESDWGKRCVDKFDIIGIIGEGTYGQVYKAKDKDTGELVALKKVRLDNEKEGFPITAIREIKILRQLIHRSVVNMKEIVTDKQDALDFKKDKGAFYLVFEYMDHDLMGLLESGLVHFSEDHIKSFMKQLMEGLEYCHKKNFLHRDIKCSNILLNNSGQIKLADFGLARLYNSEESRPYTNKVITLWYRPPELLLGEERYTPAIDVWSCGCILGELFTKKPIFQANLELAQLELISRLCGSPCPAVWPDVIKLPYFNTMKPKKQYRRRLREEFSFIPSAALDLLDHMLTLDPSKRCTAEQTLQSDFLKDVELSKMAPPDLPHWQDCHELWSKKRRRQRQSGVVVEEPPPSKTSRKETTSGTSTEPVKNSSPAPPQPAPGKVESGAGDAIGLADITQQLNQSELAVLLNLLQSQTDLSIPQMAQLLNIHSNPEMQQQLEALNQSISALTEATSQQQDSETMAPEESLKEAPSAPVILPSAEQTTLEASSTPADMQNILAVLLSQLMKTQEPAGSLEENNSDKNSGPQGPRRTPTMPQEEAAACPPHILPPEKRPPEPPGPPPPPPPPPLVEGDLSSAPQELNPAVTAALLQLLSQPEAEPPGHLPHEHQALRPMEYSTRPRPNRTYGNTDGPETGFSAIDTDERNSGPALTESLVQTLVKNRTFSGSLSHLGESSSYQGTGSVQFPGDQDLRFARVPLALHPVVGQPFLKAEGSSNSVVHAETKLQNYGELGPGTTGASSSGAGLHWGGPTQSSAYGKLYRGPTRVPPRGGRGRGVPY
T1 sequence (O75909 whole entry partner): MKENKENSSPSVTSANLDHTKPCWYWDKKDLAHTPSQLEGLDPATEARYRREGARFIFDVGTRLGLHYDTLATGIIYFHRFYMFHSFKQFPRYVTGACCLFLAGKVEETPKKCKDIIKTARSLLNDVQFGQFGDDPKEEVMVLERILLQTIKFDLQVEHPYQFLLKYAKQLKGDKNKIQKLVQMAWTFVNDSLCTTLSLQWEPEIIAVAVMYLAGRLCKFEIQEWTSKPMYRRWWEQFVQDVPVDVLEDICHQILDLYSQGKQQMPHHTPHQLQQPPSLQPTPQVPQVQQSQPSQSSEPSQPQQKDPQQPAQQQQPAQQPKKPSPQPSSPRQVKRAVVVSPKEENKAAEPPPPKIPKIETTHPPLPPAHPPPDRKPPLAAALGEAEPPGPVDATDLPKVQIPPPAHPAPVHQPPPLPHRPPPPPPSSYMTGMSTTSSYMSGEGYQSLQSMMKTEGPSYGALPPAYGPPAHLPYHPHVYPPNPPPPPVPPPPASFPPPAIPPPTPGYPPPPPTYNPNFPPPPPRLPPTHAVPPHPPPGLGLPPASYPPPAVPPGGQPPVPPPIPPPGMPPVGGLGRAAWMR

`CN(C)C/C=C/C(=O)Nc1ccc(C(=O)N2CCC[C@@H](Nc3ncc(Cl)c(-c4c[nH]c5ccccc45)n3)C2)cc1` [THZ531] was tested, and the “potency upon CUL4A or CUL4B downregulation (for SNS-032, THZ531 also DDB1 depletion)” value [1] was “remained unaffected”, the IC50 (primary AML specimens; primary AML specimen 03H109) was 0.0489 µM and the IC50 (primary AML specimens; primary AML specimen 04H055) was 0.0452 µM. It also gave an IC50 (primary AML specimens; primary AML specimen 04H096) of 0.0444 µM, an IC50 (primary AML specimens; primary AML specimen 04H138) of 0.0706 µM and an IC50 (primary AML specimens; primary AML specimen 05H113) of 0.0704 µM. It also gave an IC50 (primary AML specimens; primary AML specimen 05H149) of 0.411 µM, an IC50 (primary AML specimens; primary AML specimen 05H193) of 0.0731 µM and an IC50 (primary AML specimens; primary AML specimen 06H088) of 0.05 µM. The IC50 (primary AML specimens; primary AML specimen 06H117) was 0.0428 µM, the IC50 (primary AML specimens; primary AML specimen 06H151) was 0.103 µM and the IC50 (primary AML specimens; primary AML specimen 07H003) was 0.0495 µM. For the same molecule, the IC50 (primary AML specimens; primary AML specimen 07H131) was 0.734 µM, the IC50 (primary AML specimens; primary AML specimen 07H144) was 0.0538 µM and the IC50 (primary AML specimens; primary AML specimen 07H155) was 0.125 µM. For the same molecule, the IC50 (primary AML specimens; primary AML specimen 08H018) was 0.292 µM, the IC50 (primary AML specimens; primary AML specimen 08H021) was 0.0277 µM and the IC50 (primary AML specimens; primary AML specimen 08H056) was 0.17 µM. The IC50 (primary AML specimens; primary AML specimen 08H063) was 0.0672 µM, the IC50 (primary AML specimens; primary AML specimen 08H085) was 0.0421 µM and the IC50 (primary AML specimens; primary AML specimen 08H108) was 0.0485 µM. It also gave an IC50 (primary AML specimens; primary AML specimen 08H118) of 0.596 µM, an IC50 (primary AML specimens; primary AML specimen 09H016) of 0.121 µM and an IC50 (primary AML specimens; primary AML specimen 09H070) of 0.155 µM. The IC50 (primary AML specimens; primary AML specimen 10H014) was 0.237 µM, the IC50 (primary AML specimens; primary AML specimen 10H046) was 0.319 µM and the IC50 (primary AML specimens; primary AML specimen 10H107) was 0.164 µM. It also gave an IC50 (primary AML specimens; primary AML specimen 10H127) of 0.0482 µM, an IC50 (primary AML specimens; primary AML specimen 10H161) of 0.0466 µM and an IC50 (primary AML specimens; primary AML specimen 10H174) of 0.146 µM. It also gave an IC50 (primary AML specimens; primary AML specimen 11H008) of 0.0471 µM, an IC50 (primary AML specimens; primary AML specimen 11H019) of 0.174 µM and an IC50 (primary AML specimens; primary AML specimen 11H170) of 0.798 µM. It also gave an IC50 (primary AML specimens; primary AML specimen 11H217) of 0.0462 µM, an IC50 (primary AML specimens; primary AML specimen 11H232) of 0.296 µM and an IC50 (primary AML specimens; primary AML specimen 12H033) of 0.127 µM. For the same molecule, the IC50 (primary AML specimens; primary AML specimen 12H055) was 0.0517 µM, the IC50 (primary AML specimens; primary AML specimen 12H148) was 0.242 µM and the IC50 (primary AML specimens; primary AML specimen 13H053) was 0.16 µM. The IC50 (primary AML specimens; primary AML specimen 15H045) was 0.273 µM, the IC50 (primary AML specimens; primary AML specimen 17H065) was 1.08 µM and the “MFI of cyclin KeGFP over mCherry” value (cyclin KeGFP) was 103.0 and 93.3 and 92.2 and 93.5. For the same molecule, the “in vitro inhibition of CDK12/Cyclin K activity” value (CDK12/Cyclin K; Log10 (uM) 0.30103) was 95.76 and 74.16 and 142.36, the “in vitro inhibition of CDK12/Cyclin K activity” value (CDK12/Cyclin K; Log10 (uM) -1.09691) was 64.02 and 71.5 and 108.97 and the “in vitro inhibition of CDK12/Cyclin K activity” value (CDK12/Cyclin K; Log10 (uM) -1.79588) was 50.36 and 51.42 and 41.9. The “in vitro inhibition of CDK12/Cyclin K activity” value (CDK12/Cyclin K; Log10 (uM) -2.49485) was 37.5 and 37.15 and 28.34 and the IC50 (CDK12/Cyclin K; read-out: IC50, in vitro inhibition of CDK12/Cyclin K activity) was 0.029 µM.
